Consider five compounds from US8653023B1, “Dual beneficial effect of dopamine enhancing and neuroprotective actions of PKC delta inhibitors for treatment of Parkinson's disease” (Iowa State University Research Foundation, Inc., priority 2006, dated 2014).

For series [1], the system named is primary mesencephalic dopaminergic neuronal cells. The series is classed as cell-based, mice. To be noted: 10 μM MPP+ for 48 hrs. The protocol: Primary mesencephalic neuronal cultures were prepared from the ventral mesencephalon of gestational 16-18-day-old mice embryos as described previously (Yang et al., 2004). Mesencephalic tissues were dissected and maintained in ice-cold Ca^2+-free HESS and then dissociated in HESS solution containing trypsin-EDTA (0.25%) for 20 min at 37° C. The dissociated cells were then plated at equal density (0.5×10^6 cells) in 30-mm-diameter tissue culture wells precoated with poly-D-lysine (1 mg/ml). Cultures were maintained in a chemically defined medium consisting of neurobasal medium fortified with B-27 supplements, L-glutamine (500 μM), penicillin (100 IU/ml), and streptomycin (100 μg/ml) (Life Technologies). The cells were maintained in a humidified CO2 incubator (5% CO2, 37° C.) for 24 hr and then treated with cytosine arabinoside (10 μM) for 24 hr to inhibit glial cell proliferation. Half of the culture medium was replaced every 2 days. Approximately 6-7-day-old cultures were used for experiments. […]
After treatment, the primary mesencephalic neurons were fixed with 4% paraformaldehyde and processed for immunocytotochemical staining. […] Then the coverslips containing stained cells were washed with PBS, mounted on a slide, and viewed under a Nikon inverted fluorescence microscope (Model TE-2000U); images were captured with a SPOT digital camera (Diagnostic Instruments, Sterling Heights, Mich.).
We used Metamorph software (Universal Imaging, Version 5.0) for measurement of TH^+ cells and neuronal processes in primary neurons from each coverslip. For measurement of TH cell count, the images were first thresholded, and then neuronal count and volume were measured using the Integrated Morphometry Analysis (IMA) function. The data were logged to an Excel spreadsheet with defined row and column positions and then analyzed. […] The data were exported to an Excel spreadsheet and analyzed. TH^+ neurons and their processes were counted in at least six individual cultures for each treatment. This method is a modified version of methodology recently used for quantification of neuronal processes.

Series [2] concerns MPTP-treated C57 black mice. Briefly: Locomotor activity of MPTP-treated mice (VersaMax). The series is classed as in vivo. To be noted: MPTP treatment alone, 1 day after treatment, 20-min session. From the text:
Behavioral data were collected using VersaMax Animal Activity Monitors (AccuScan Model RXYZCM-16, Columbus, Ohio). Each chamber was 40×40×30.5 cm^3, made of clear Plexiglas and covered with a Plexiglas lid with air-holes. Infrared monitoring sensors were located every 2.54 cm along the perimeter (16 infrared beams along each side) and 2.5 cm above the floor. Two additional sets of 16 sensors were located 8.0 cm above the floor on opposite sides. Data were collected and analyzed by a VersaMax Analyzer (AccuScan Model CDA-8, Columbus, Ohio) which in turn sent information to an IBM computer where it was stored for future analyses. Locomotor activity was presented as horizontal movement and vertical movement. All data are expressed as percent of the vehicle-treated control group (mean 6 SEM) and were obtained 1 day after MPTP or vehicle treatment in a 20-min test session.

The test system of series [3] is MPTP-treated C57 black mice. As to the kind of experiment: MPTP-induced striatal dopamine depletion (HPLC-EC). To be noted: MPTP 30 mg/kg for 5 days alone. The series is classed as in vivo. How it is done: (§1) Six to 8-week-old […] mice weighing 30 g were housed in standard conditions: constant temperature (22±1° C.), humidity (relative, 30%) and a 12-h light/dark cycle, and were allowed free access to food and water. The animals and protocol procedures were approved and supervised by the Committee on Animal Care (COAC) at the Iowa State University. Rottlerin was dissolved in 1% dimethyl sulfoxide (DMSO) and was administered intraperitoneally at various doses. An equal volume of DMSO was given to controls. Rottlerin and DMSO administrations were started 24 h before the injections of the MPTP and continued for 5 days in the MPTP model. In the chronic regimens of MPTP administration, MPTP in phosphate-buffered saline (PBS) was injected intraperitoneally at doses of 30 mg/kg, once a day. Mice were sacrificed 2 days after the MPTP injections, and the striata were dissected for catecholamine analysis. Additionally, rottlerin alone (0.3-20 mg/kg) was administered via intraperitoneally or orally and then brain tissues were subjected to neurochemical analyses (FIG. 8). The mesencephalons were fixed in 4% paraformaldehyde for 5 days for tyrosine hydroxylase (TH) immunostaining.
DA and DOPAC levels in brain striatal tissues were determined by high-performance liquid chromatography with electrochemical detection (HPLC-EC); samples were prepared as described previously (Kitazawa, Anantharam et al. 2001). Briefly, neurotransmitters were extracted from samples using 0.1M perchloric acid containing 0.05% Na2EDTA and 0.1% Na2S2O5. The extracts were filtered in 0.22 micron spin tubes and 20 μl of the samples was loaded for analysis. DA and DOPAC were separated isocratically by a reversed-phase column with a flow rate of 0.7 ml/min. An HPLC system (ESA Inc., Bedford, Mass.) with an ESA automatic sampler (model 542) was used for these experiments. The electrochemical detection (EC) system consisted of an ESA coulochem model 5100A with a microanalysis cell model 5014A and a guard cell model 5020 (ESA Inc., Bedford, Mass.). The DA and DOPAC levels were measured as pg/mg protein and expressed as percent of control.

Series [4] deals with MPTP-treated C57 black mice. Briefly: TH+ neuron count in substantia nigra pars compacta of MPTP mice (stereology). To be noted: MPTP 30 mg/kg for 5 continuous days. The series is classed as in vivo. How it is done:
as §1
Brains removed following cervical dislocation were post-fixed in paraformaldehyde and used for TH immunolabelling and stereological studies. Fixed brains were cut into 30-μm sections and collected in cryoprotectant. Sections were rinsed in PBS at room temperature before immunostaining, then incubated with a anti-TH antibody as described (Thiruchelvam, McCormack et al. 2003; Thiruchelvam, Powers et al. 2004). The total number of TH^+ and TH Nissl-stained neurons in the SNpc were counted using the optical fractionator and previously described counting criteria (Thiruchelvam, McCormack et al. 2003; Thiruchelvam, Powers et al. 2004). After delineation of the region at low magnification (4× objective), every fourth section from the entire substantia nigra was sampled at higher magnification (100× objective) using StereoImager (Microbrightfield, Vt.).

Another series deals with dopaminergic N27 cells. To be noted: cited from earlier work.
For series [5], the system named is tyrosine hydroxylase (TH). Briefly: TH activity (DOPA levels after NSD-1015) in N27 cells. The series is classed as cell-based, rat. To be noted: okadaic acid 2 μM for 2 hr. How it is done:
Plasmid pPKCδ^K376R-V5 encodes the loss of function PKCδ-V5 epitope tagged mutant protein; K376R refers to the mutation of the lysine residue at position 376 to arginine in the catalytic site resulting in inactivation of the kinase. Plasmid pLacZ-V5 encodes the β-galactosidase protein alone with a V5-epitope and is used as a vector control. N27 cells stably expressing PKCδ^K376R-V5 (herein referred to as PKCδ-DN cells) and LacZ alone-expressing cells (LacZ cells) were cultured as described previously (Kitazawa et al., 2005). PKCδ-DN or LacZ expressing N27 cells were identified by immunostaining of the C-terminal V5 epitope on expressed proteins and were differentiated with cAMP analogs (e.g. dibutyral cAMP) prior to experiments. PKCδ-DN and LacZ were also transiently expressed in mouse primary mesencephalic neurons using an AMAXA® Nucleofector™ kit (AMAXA GmbH, Germany). As described above, primary mesencephalic neurons were prepared from the midbrain of 16-18-day-old mice embryos. After digestion with trypsin-EDTA-HBSS, the primary neurons were homogenously resuspended with transfection buffer provided with the kit to a final concentration of 4-5×10^6 neurons/100 μl and mixed with 1 μg plasmid DNA encoding either PKCδ-DN-V5 or LacZ-V5. […] Transfection efficiency was >75% as determined by immunostaining of V5-expression. […]

Series [6] deals with tyrosine hydroxylase (TH). Briefly: TH phosphorylation in N27 cells (Western blot, immunofluorescence). The series is classed as cell-based, rat. How it is done: (§2) PC12 cells, differentiated N27 dopaminergic cells and primary mesencephalic neurons were exposed to 1-10 μM rottlerin for the duration of the experiment. DMSO (0.01%) was used as vehicle control. PKCδ-DN- and Lac Z-expressing N27 cells were only treated with 0.01% DMSO. […] Untreated or vehicle treated cells were used as control samples.
(§3) Cell and brain lysates containing equal amounts of protein were loaded in each lane and separated on a 10-12% SDS-PAGE gel as described previously (Kaul et al., 2003). After the separation, proteins were transferred to nitrocellulose membrane, and nonspecific binding sites were blocked by treating with 5% nonfat dry milk powder. The membranes were then treated with primary antibodies directed against PKCδ (rabbit polyclonal or mouse monoclonal, 1:2000 dilution), TH (rabbit polyclonal or mouse monoclonal, 1:1000), phospho TH-ser40 (rabbit polyclonal, 1:1000), phospho TH-ser31 TH (rabbit polyclonal, 1:1000), or PP2A (mouse monoclonal, 1:1000). The primary antibody treatments were followed by treatment with secondary HRP-conjugated anti-rabbit or anti-mouse IgG (1:2000) for 1 hr at RT. Secondary antibody-bound proteins were detected using Amersham's ECL chemiluminescence kit. To confirm equal protein loading, blots were reprobed with a β-actin antibody (1:5000 dilution). Western blot images were captured with a Kodak 2000 MM imaging system and data were analyzed using 1D Kodak imaging analysis software.
Immunostaining of PKCδ, TH, Ser40 P-TH and Ser31 P-TH was performed in PC12, N27 and primary mesencephalic neurons. Cells were grown on poly-L-Lysine-coated glass cover slips. After treatment, the cells were fixed with 4% paraformaldehyde and processed for immunohistochemical staining. First, non-specific sites were blocked with 5% normal goat serum containing 0.4% BSA and 0.2% Triton-X 100 in PBS for 20 min. Cells were then incubated with antibodies directed against PKCδ (1:500 dilution), TH (1:500 dilution), and P-THSer40 (1:500 dilution) overnight at 4° C. followed by incubation with either Alexa 488-conjugated (green, 1:1000) or Cy3-conjugated (red, 1:1000) secondary antibody for 1 hr at RT. Secondary antibody treatments were followed by incubation with Hoechst 33342 (10 μg/ml) for 3 min at room temperature to stain the nucleus. Then the coverslips containing stained cells were washed with PBS, mounted on a slide, and viewed under a Nikon inverted fluorescence microscope (Model TE-2000U); images were captured with a SPOT digital camera (Diagnostic Instruments, Sterling Heights, Mich.).

For another series, the system named is PKCδ. As to the kind of experiment: PKCδ expression in siRNA-transfected N27 cells (Western blot). To be noted: vs siRNA-NS. The series is classed as cell-based, rat. The protocol:
Small interfering RNAs (siRNAs) were prepared by an in vitro transcription method as described previously (Yang et al., 2004). Cy-3 labeling of siRNA and transfections were carried out as described in a recent publication (Yang et al., 2004). We used the siRNA PKCδ-4 and non-specific siRNA (siRNA-NS) for this study.
as §3, with “To confirm equal protein loading, blots were reprobed with a β-actin antibody (1:5000 dilution).” left out

Another series has as its system N27 cells. Briefly: Cellular DA and DOPAC levels in N27 cells (HPLC-EC). To be noted: siRNA-transfected N27 cells. The series is classed as cell-based, rat. The protocol: as §2
DA and DOPAC levels in PC12, N27 cells and in brain striatal tissues were determined by high-performance liquid chromatography with electrochemical detection (HPLC-EC); samples were prepared as described previously (Kitazawa et al., 2001). The DA and DOPAC levels were measured as pg/mg protein and expressed as percent of control.

Where [7] appears, read: N27 cells, okadaic acid 2 μM for 2 hr.

For `C[n+]1ccc(-c2ccccc2)cc1` [MPP^+, 1-methyl-4-phenylpyridinium], the “cell death and loss of neurites length of TH+ neurons” value in series [1] came out at 90%.
On to `CN1CC=C(c2ccccc2)CC1` [MPTP, 1-methyl-4-phenyl-1,2,3,6-tetrahydropyridine], for which the “locomotor activity compared to control group” value in [2] was 55.17%. Besides, in series [3], the “dopamine level in striatum” value stood at 14.49±3.77 pg DA/mg tissue weight and the “reduction of striatal dopamine versus vehicle” value is −94%. In addition, the “cell loss in SNpc as compared to controls” value in series [4] was 40%.
For `O=c1c(-c2ccc(O)cc2)coc2cc(O)cc(O)c12` [genistein], the “H2O2 and MPP+-induced apoptotic cell death (genistein: also PKCδ cleavage, kinase activation)” value in the series on dopaminergic N27 cells was “dramatically inhibited”.
`C=C1[C@@H](O)[C@@H]2O[C@]3(CC[C@H](/C=C/[C@@H](C)[C@@H]4CC(C)=C[C@@]5(O[C@H](C[C@@](C)(O)C(=O)O)CC[C@H]5O)O4)O3)CC[C@H]2O[C@@H]1[C@@H](O)C[C@H](C)[C@H]1O[C@@]2(CCCCO2)CC[C@H]1C` [okadaic acid]: the “DOPA levels (TH activity)” value in series [5] is given as 1434±212.6 pg/10^6 cells/hr. In series [6] (setting [7]), the “baseline THser40 phosphorylation levels versus untreated cells” value is “increase” and the “levels of total TH versus untreated cells” value is reported as “similar”.
Take “PKCδ siRNA: siRNA PKCδ-4 directed against PKCδ; probably siRNA-d-4, SEQ ID NO:7 and 8 (chain 1 AACTGTTTGTGAATTTGCCTTCCTGTCTC; chain 2 AAAAGGCAAATTCACAAACAGCCTGTCTC; listed as DNA, chemistry not given here)”: the “reduction in PKCδ expression” value in the series with PKCδ was 55%. In series [6] (siRNA-transfected N27 cells), the “TH-Ser40 (60 kDa band) densitometry, increase versus siRNA-NS” value is 2 fold and the “total TH levels versus siRNA-NS” value is on record as “similar”. In addition, in the series with N27 cells, the “increase in DOPAC versus siRNA-NS” value was found to be 71% and the “increase in the DA level versus siRNA-NS” value turned out to be 45%.
